Measurements reported in PubChem BioAssay (NCI).
“And” between values parts separate entries of the source, which are not always exact repeats. Identical values can stand only once.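 Assay format: 96-well plates, 48-hour exposure. GI50 marks 50% less growth. TGI is the concentration that stops growth completely.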

Tests used:
Assay in all cases: growth of human tumour cells (NCI), 48 h
[1] = test system: HOP-62 NSCLC
[2] = test system: HT29 colon
[3] = test system: OVCAR-4 ovarian
[4] = test system: BT-549 breast
[5] = test system: UO-31 renal
[6] = test system: HCC-2998 colon
[7] = test system: HCT-15 colon
[8] = test system: 786-0 renal
[9] = test system: HOP-92 NSCLC
[10] = test system: MOLT-4 leukemia

Row | SMILES | TGI [1] | TGI [2] | TGI [3] | TGI [4] | TGI [5] | TGI [6] | TGI [7] | TGI [8] | TGI [9] | TGI [10] | GI50 [1] | GI50 [2] | GI50 [3] | GI50 [4] | GI50 [5] | GI50 [6] | GI50 [7] | GI50 [8] | GI50 [9] | GI50 [10]
1 | C=C1C(=O)O[C@@H]2C[C@@]3(C)CC(=O)C=C(C)[C@@H]3C[C@H]12 | 34.4 µM | 24.6 µM | 23.2 µM | 27.6 µM | 24.1 µM | 28.1 µM | 15.2 µM | 31.5 µM | 55 µM | 21.8 µM | – | – | – | – | – | – | – | – | – | –
2 | Cc1cc2c(cc1C)NC1=C(N2)OC(c2c[nH]c3ccc(COc4ccccc4)cc23)C1=O (centres undefined) | 49.8 µM | > 100 µM | > 100 µM | > 100 µM | > 100 µM | 98.5 µM | > 100 µM | > 100 µM | > 100 µM | > 100 µM | – | – | – | – | – | – | – | – | – | –
3 | COc1cc(-c2csc(NC(=O)c3cc(C(F)(F)F)cc(C(F)(F)F)c3)n2)cc(OC)c1OC | > 100 µM | > 100 µM | > 100 µM | 6.66 µM | > 100 µM | > 100 µM | > 100 µM | > 100 µM | 4.11 µM | 4.98 µM | 3.03 µM | 2.07 µM | 2.86 µM | 2.16 µM | 2.57 µM | 3.2 µM | 2.71 µM | 3.16 µM | 0.848 µM | 1.92 µM
4 | N/C(=N\OC(=O)c1ccccc1)C(C(=O)NOC(=O)c1ccccc1)C1CCCCC1 (centres undefined) | 9.09 µM | 35.2 µM | 37.6 µM | 15.1 µM | 3.96 µM | 27.2 µM | 23.5 µM | 26.9 µM | 7.72 µM | 49.8 µM | 2.87 µM | 16.1 µM | 9.4 µM | 3.98 µM | 2.01 µM | 13.5 µM | 9.65 µM | 13.9 µM | 2.39 µM | 6.62 µM
5 | Cc1cccc(NC(=O)c2sc3nc4c(cc3c2N)CCCC4)c1C | > 100 µM | > 100 µM | > 100 µM | > 100 µM | > 100 µM | > 100 µM | > 100 µM | > 100 µM | > 100 µM | > 100 µM | 0.537 µM | 0.341 µM | 1.48 µM | 2.51 µM | – | 1.59 µM | 0.363 µM | 0.532 µM | 0.7 µM | 0.455 µM
6 | O=c1oc2ccccc2c(O)c1C=NC(=S)c1ccncc1 | > 100 µM | > 100 µM | > 100 µM | 94 µM | > 100 µM | > 100 µM | > 100 µM | > 100 µM | > 100 µM | > 100 µM | – | – | – | – | – | – | – | – | – | –
7 | CC(C)n1c(/C=C/[C@@H](O)C[C@@H](O)CC(=O)O)c(-c2ccc(F)cc2)c2ccccc21 | > 100 µM | > 100 µM | > 100 µM | > 77.6 µM | > 100 µM | > 100 µM | > 100 µM | > 100 µM | 0.282 µM and 0.183 µM | 67.5 µM and > 100 µM | 11.4 µM and 13 µM | 12.8 µM and 15.6 µM | 10.4 µM and 12.9 µM | 5.8 µM and 4.63 µM | 4.91 µM and 3.26 µM | 10.4 µM and 28.4 µM | 3.04 µM and 1.66 µM | 4.71 µM and 5.31 µM | 0.0329 µM and 0.0368 µM | 16.4 µM and 21.9 µM
